Assay results taken from article PMC9413271, “Anti-Obesity Evaluation of Averrhoa carambola L. Leaves and Assessment of Its Polyphenols as Potential α-Glucosidase Inhibitors” (Molecules, 2022).
Entries after “also recorded” stand apart in the source; their conditions may differ.

System: α-glucosidase
Experiment: In vitro α-glucosidase inhibitory assay
Type: biochemical
Design: key to IC50 (α-glucosidase inhibition), dash = inactive: (-) indicates inactive compounds
Conditions: for α-glucosidase inhibitory activity (in words): in vitro; for IC50 (α-glucosidase inhibition), dash = inactive / IC50: sucrose substrate, 37 °C, 30 min, n = 3; for IC50: read-out: IC50 (α-glucosidase inhibition)
Protocol: The assay of α-glucosidase inhibitory activity of compounds was adopted from. Briefly, 100 μL of DMSO and 100 μL of α-glucosidase enzyme (5 U/mL in 0.15 M HEPES buffer) were added to 100 μL substrate (0.1 M sucrose solution dissolved into 0.15 M HEPES buffer). The mixture was vortexed for 5 sec and then incubated at 37 °C for 30 min to allow for enzymatic reaction. After incubation, the reaction was stopped by heating at 100 °C for 10 min in a block incubator. The formation of glucose was determined by means of glucose oxidase method, using a BF-5S Biosensor (Oji Scientific Instruments, Hyogo, Japan). Mathematically, α-glucosidase inhibitory activity of each sample was calculated according to this equation: (Average value of control (Ac) − average value of the sample (As))/Ac × 100.
The IC50 values were calculated from plots of log concentration of inhibitor concentration against the percentage inhibition curves, using Microsoft Excel 2016. The data were expressed as mean ± standard deviation (SD) of at least three independent experiments (n = 3).

Row | Structure (SMILES) | α-glucosidase inhibitory activity (in words) | IC50 (α-glucosidase inhibition), dash = inactive | IC50
1 | CC1OC(OC2C(Oc3cc(O)c(C4OC(C)C(O)C(O)C4O)c(O)c3C(=O)CCc3ccc(O)cc3)OC(CO)C2O)C(O)C(O)C1O (centres unmarked) [Compound 6, carambolaside Ia] | inactive | - | 
2 | CC1OC(OC2C(Oc3cc(O)c(C4OC(C)C(O)C(O)C4OC(=O)C=Cc4ccccc4)c(O)c3C(=O)CCc3ccc(O)cc3)OC(CO)C2O)C(O)C(O)C1O (centres unmarked) [Compound 9, carambolaside I] | inactive | - | 
3 | O=c1cc(-c2ccc(O)cc2)oc2cc(O)cc(O)c12 [Apigenin, reference compound] |  |  | 85.6 ± 0.01 µM
4 | O=C(CCc1ccc(O)cc1)c1c(O)cc(O)cc1O [Phloretin, reference compound] |  |  | 110.4 ± 0.06 µM
5 | CC1OC(OC2C(Oc3cc(O)c(C4OC(C)C(O)C(O)C4OC(=O)C=Cc4ccc(O)cc4)c(O)c3C(=O)CCc3ccc(O)cc3)OC(CO)C2O)C(O)C(O)C1O (centres unmarked) [Compound 12, carambolaside Q] | relatively strong activity; also recorded: Potent inhibition |  | 323.6 ± 0.06 µM
6 | O=C(CCc1ccc(O)cc1)c1c(O)cc(O)cc1O[C@@H]1O[C@H](CO)[C@@H](O)[C@H](O)[C@H]1O [Phloridzin, phloretin-2′-glucose, reference compound] | moderate inhibitory activity |  | 853.1 ± 0.02 µM
7 | O=c1cc(-c2ccc(O)c(O)c2)oc2cc(O)cc(O)c12 [Luteolin, reference compound] |  |  | 48.2 ± 0.02 µM
8 | CC1OC(OC2C(c3c(O)cc4oc(-c5ccc(O)cc5)cc(=O)c4c3O)OC(C)C(O)C2O)C(O)C(O)C1O [Compound 4, apigenin 6-C-α-L-rhamnopyranosyl-(1-2)-β-L-fucopyranoside] | Potent inhibition |  | 390 µM
9 | CC1OC(OC2C(c3c(O)cc4oc(-c5ccc(O)c(O)c5)cc(=O)c4c3O)OC(C)C(O)C2O)C(O)C(O)C1O [Compound 2, luteolin 6-C-α-L-rhamnopyranosyl-(1-2)-β-D-fucopyranoside] | highest inhibitory activity among all isolated flavone glycosides; also recorded: Potent inhibition |  | 328 µM
10 | CC(=O)OC1C(C)OC(c2c(O)cc(OC3OC(CO)C(O)C3OC3OC(C)C(O)C(O)C3O)c(C(=O)CCc3ccc(O)cc3)c2O)C(OC(=O)C=Cc2ccc(O)cc2)C1OC1OC(C)C(O)C(O)C1O (centres unmarked) [Compound 11, Mix of 4″-O-acetyl-carambolaside P and 4″-O-acetyl-carambolaside O] | inactive | - | 
11 | CC(=O)OC1C(C)OC(c2c(O)cc(OC3OC(CO)C(O)C3OC3OC(C)C(O)C(O)C3O)c(C(=O)CCc3ccc(O)cc3)c2O)C(OC(=O)C=Cc2ccccc2)C1OC1OC(C)C(O)C(O)C1O [Compound 8, phloretin 3′-C-(2-O-(E)-cinnamoyl-3-O-β-D-fucopyranosyl-4-O-acetyl)-β-D-fucopyranosyl-6′-O-β-D fucopyranosyl-(1/2)-α-L arabinofuranoside] | inactive | - | 
12 | CC1OC(OC2C(Oc3cc(O)c(C4OC(C)C(O)C(OC5OC(C)C(O)C(O)C5O)C4OC(=O)C=Cc4ccccc4)c(O)c3C(=O)CCc3ccc(O)cc3)OC(CO)C2O)C(O)C(O)C1O (centres unmarked) [Compound 7, carambolaside J] | inactive | - | 
13 | O=c1cc(-c2ccc(O)cc2)oc2cc(O)c(C3OC(CO)C(O)C(O)C3O)c(O)c12 [Compound 3, apigenin 6-C-β-D-galactopyranoside] | Potent inhibition |  | 439 µM
14 | CC1OC(c2c(O)cc(OC3OC(CO)C(O)C3O)c(C(=O)CCc3ccc(O)cc3)c2O)C(O)C(O)C1OC1OC(CO)C(O)C(O)C1O (centres unmarked) [Compound 5, carambolaside M] | inactive | - | 
15 | C[C@H]1O[C@@H](Oc2cc3oc(-c4ccc(O)cc4)cc(=O)c3c(O)c2[C@H]2C[C@@H](O)[C@@H](O)[C@@H](CO)O2)[C@H](O)[C@@H](O)[C@@H]1O [Compound 1, apigenin 6-C-(2-deoxy-β-D-galactopyranoside)-7-O-β-D-quinovopyranoside] |  |  | 613 µM
